Measurements published in PMC12910644 (Journal of Medicinal Chemistry, 2026).

Assays:
[1] = molecular target: T1, CK1γ3 (Homo sapiens, UniProt Q9Y6M4); assay: Eurofins radiometric enzymatic assay CK1γ3; type: biochemical; conditions: read-out: enzymatic IC50 CK1γ3, ATP at Km, N = 1
Target sequence in this assay (Q9Y6M4 33-362): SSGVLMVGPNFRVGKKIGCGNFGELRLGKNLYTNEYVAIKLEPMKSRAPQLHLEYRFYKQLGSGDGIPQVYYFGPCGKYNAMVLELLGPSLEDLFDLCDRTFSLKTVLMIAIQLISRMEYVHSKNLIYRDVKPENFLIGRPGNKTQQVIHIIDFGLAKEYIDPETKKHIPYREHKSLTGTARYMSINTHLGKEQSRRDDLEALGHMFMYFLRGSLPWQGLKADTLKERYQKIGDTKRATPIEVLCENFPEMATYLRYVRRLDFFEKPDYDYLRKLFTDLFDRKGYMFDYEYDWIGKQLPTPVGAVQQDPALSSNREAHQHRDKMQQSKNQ

[2] = molecular target: T2, CK1γ1 (Homo sapiens, UniProt Q9HCP0); assay: CK1γ1 NanoBRET assay with tracer 23, intact cells; type: cell-based; conditions: intact HEK293 cells, N = 1
[3] = molecular target: T3, CK1γ2 (Homo sapiens, UniProt P78368); assay: CK1γ2 NanoBRET assay with tracer 23, intact cells; type: cell-based; conditions: intact HEK293 cells, N = 1
T3 sequence (P78368 whole entry): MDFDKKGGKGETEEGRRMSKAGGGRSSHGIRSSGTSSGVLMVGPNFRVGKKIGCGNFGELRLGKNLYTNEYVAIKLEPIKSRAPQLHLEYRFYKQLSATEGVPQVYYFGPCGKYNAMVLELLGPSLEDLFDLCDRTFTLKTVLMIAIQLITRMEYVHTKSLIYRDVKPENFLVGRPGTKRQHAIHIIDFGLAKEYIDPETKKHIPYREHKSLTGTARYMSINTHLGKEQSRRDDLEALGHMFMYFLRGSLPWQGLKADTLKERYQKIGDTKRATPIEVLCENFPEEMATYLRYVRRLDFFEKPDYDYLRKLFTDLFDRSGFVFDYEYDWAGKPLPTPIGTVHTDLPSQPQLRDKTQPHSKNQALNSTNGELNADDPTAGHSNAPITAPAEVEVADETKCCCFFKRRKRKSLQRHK

[4] = molecular target: T3, CK1γ2; assay: Eurofins radiometric enzymatic assay CK1γ2; type: biochemical
[5] = molecular target: T2, CK1γ1; assay: Eurofins radiometric enzymatic assay CK1γ1; type: biochemical
[6] = molecular target: T1, CK1γ3; assay: CK1γ3 NanoBRET assay with tracer 23, intact cells; type: cell-based; conditions: intact HEK293 cells, N = 1
Target sequence in this assay (Q9Y6M4 whole entry): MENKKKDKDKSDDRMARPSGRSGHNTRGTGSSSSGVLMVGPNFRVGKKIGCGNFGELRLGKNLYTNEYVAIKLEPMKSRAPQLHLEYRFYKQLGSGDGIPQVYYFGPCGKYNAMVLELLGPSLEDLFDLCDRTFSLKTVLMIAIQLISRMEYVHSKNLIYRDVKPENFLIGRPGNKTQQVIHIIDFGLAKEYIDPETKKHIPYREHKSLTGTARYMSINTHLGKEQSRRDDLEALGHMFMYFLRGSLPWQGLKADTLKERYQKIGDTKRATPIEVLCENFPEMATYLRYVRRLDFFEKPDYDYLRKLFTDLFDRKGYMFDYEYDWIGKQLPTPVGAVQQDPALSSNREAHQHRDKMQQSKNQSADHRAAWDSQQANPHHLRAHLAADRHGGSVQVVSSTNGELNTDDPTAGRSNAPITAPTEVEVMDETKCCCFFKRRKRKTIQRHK

[7] = tested on: LRP6 phosphorylation at T1479; assay: Western blot of LRP6 phosphorylation in HEK293 cells; type: cell-based, human; conditions: 5 μM, WNT3A and R-Spondin-1, 2 h
[8] = molecular target: panel of 192 kinases (Homo sapiens, UniProt P78368); assay: K192 NanoBRET kinase selectivity panel; type: cell-based; conditions: read-out: %Fractional Occupancy
Sequence of panel of 192 kinases (Homo sapiens, UniProt P78368) (P78368 whole entry): as the sequence (P78368 whole entry) above

[9] = tested on: HEK293 cells; assay: CellTiter-Glo HEK293 cell viability assay; type: cell-based, human; conditions: 10 μM for 24 or 48 h
[10] = Dynamic light scattering; type: physicochemical; conditions: HBS buffer, 2% DMSO, 25 °C
[11] = molecular target: T4, MOK (Homo sapiens, UniProt Q9UQ07); assay: MOK NanoBRET assay; type: cell-based
T4 sequence (Q9UQ07 1-419): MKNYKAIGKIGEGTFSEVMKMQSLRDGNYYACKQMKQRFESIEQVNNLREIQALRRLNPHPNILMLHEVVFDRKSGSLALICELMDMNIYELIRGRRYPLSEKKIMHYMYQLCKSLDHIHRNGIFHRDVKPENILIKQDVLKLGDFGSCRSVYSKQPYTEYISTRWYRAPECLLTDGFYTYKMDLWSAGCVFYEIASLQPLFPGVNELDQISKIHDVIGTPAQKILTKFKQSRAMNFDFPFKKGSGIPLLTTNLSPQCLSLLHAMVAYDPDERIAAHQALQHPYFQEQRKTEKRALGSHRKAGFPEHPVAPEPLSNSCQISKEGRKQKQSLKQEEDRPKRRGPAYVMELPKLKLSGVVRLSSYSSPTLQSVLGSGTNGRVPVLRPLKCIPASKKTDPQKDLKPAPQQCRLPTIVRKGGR

[12] = molecular target: panel of 192 kinases (Homo sapiens, UniProt Q9HAZ1); assay: K192 NanoBRET kinase selectivity panel; type: cell-based; conditions: read-out: %Fractional Occupancy
Sequence of panel of 192 kinases (Homo sapiens, UniProt Q9HAZ1) (Q9HAZ1 whole entry): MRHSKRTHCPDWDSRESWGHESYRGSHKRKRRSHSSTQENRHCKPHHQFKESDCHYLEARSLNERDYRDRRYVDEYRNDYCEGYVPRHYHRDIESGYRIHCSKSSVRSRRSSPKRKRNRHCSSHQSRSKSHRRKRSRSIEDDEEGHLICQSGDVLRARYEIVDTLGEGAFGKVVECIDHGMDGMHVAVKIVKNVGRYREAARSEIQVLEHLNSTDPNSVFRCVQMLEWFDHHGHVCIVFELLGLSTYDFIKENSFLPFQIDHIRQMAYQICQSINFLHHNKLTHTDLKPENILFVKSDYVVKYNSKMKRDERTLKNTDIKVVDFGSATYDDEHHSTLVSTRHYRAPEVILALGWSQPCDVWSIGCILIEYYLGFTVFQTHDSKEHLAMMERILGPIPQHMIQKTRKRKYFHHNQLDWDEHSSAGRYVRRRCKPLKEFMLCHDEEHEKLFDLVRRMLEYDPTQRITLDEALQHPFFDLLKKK

[13] = molecular target: CLK4 (Homo sapiens, UniProt Q9HAZ1); assay: CLK4 NanoBRET assay
Sequence of CLK4 (Q9HAZ1 whole entry): as above

[14] = read-out: NB IC50 CK1γ1, tracer 23
[15] = read-out: NB IC50 CK1γ3, tracer 23
[16] = read-out: NB IC50 CK1γ2, tracer 23

T2 sequence (Q9HCP0 whole entry): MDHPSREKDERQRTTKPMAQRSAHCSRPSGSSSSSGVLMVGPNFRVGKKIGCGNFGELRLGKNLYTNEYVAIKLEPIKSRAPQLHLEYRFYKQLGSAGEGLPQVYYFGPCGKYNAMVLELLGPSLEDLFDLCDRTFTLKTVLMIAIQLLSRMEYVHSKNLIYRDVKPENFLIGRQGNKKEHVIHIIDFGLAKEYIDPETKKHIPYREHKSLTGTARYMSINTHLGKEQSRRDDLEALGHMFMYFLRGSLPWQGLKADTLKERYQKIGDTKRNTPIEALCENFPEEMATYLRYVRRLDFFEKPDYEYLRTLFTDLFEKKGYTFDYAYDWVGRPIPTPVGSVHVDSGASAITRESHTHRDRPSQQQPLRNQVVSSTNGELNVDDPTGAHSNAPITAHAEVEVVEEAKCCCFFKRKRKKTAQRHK

IC50 [1] | IC50 ([2]; NB IC50 CK1γ1, tracer 23) | IC50 ([3]; NB IC50 CK1γ2, tracer 23) | IC50 [4] | IC50 [5] | IC50 ([6]; NB IC50 CK1γ3, tracer 23) | SMILES | further results
1300 nM | 910 nM | 920 nM | 81 nM | 430 nM |  | N#Cc1ccc2nc(Nc3ccc(N4CCOCC4)cc3)[nH]c2c1 [Compound 4, 2-((4-morpholinophenyl)amino)-1H-benzo[d]imidazole-6-carbonitrile] | 
2750 nM | > 30000 nM | > 30000 nM | 4170 nM | 5520 nM | > 30000 nM | COc1cc(N2CCOCC2)ccc1Nc1nc2ccc(C#N)cc2[nH]1 [Compound 5, 2-((2-Methoxy-4-morpholinophenyl)amino)-1H-benzo[d]imidazole-6-carbonitrile] | LRP6 phosphorylation at T1479 [7]: did not occur
656 nM | 980 nM | 770 nM | 34 nM | 212 nM |  | N#Cc1ccc2nc(Nc3ccc(N4CCOCC4)c(F)c3)[nH]c2c1 [Compound 9, 2-((3-Fluoro-4-morpholinophenyl)amino)-1H-benzo[d]imidazole-6-carbonitrile] | 
 | 1400 nM | 780 nM | 34 nM | 120 nM | 1350 nM | N#Cc1ccc2nc(Nc3ccc(N4CCOCC4)c(C(F)(F)F)c3)[nH]c2c1 [Compound 10, 2-((4-Morpholino-3-(trifluoromethyl)phenyl)amino)-1H-benzo[d]imidazole-6-carbonitrile] | 
976 nM | 920 nM |  | 25 nM | 121 nM | 3300 nM | N#Cc1ccc2nc(Nc3cc(F)c(N4CCOCC4)c(F)c3)[nH]c2c1 [Compound 11, 2-((3,5-Difluoro-4-morpholinophenyl)amino)-1H-benzo[d]imidazole-6-carbonitrile] | 
958 nM | 180 nM | 180 nM |  |  |  | N#Cc1ccc2nc(Nc3ccc(N4CCOCC4)c(Cl)c3)[nH]c2c1 [Compound 14, 2-((3-Chloro-4-morpholinophenyl)amino)-1H-benzo[d]imidazole-6-carbonitrile] | receptor occupancy at 1 µM [8]: 74%; HEK293 cell viability (CellTiter-Glo) [9]: did not impact cell viability; aqueous solubility in DLS [10]: good aqueous solubility; IC50 [11]: > 5000 nM
700 nM | 580 nM | 110 nM |  |  | 110 nM | N#Cc1ccc2nc(Nc3ccc(N4CCOCC4)c(Br)c3)[nH]c2c1 [Compound 15, 2-((3-Bromo-4-morpholinophenyl)amino)-1H-benzo[d]imidazole-6-carbonitrile] | 
475 nM | 380 nM | 250 nM |  |  | 300 nM | N#Cc1ccc2[nH]c(Nc3ccc(N4CCCCC4)c(Cl)c3)nc2c1 [Compound 20, 2-((3-Chloro-4-(piperidin-1-yl)phenyl)amino)-1H-benzo[d]imidazole-5-carbonitrile] | 
431 nM | 170 nM | 220 nM |  |  | 180 nM | CN1CCN(c2ccc(Nc3nc4ccc(C#N)cc4[nH]3)cc2Cl)CC1 [Compound 21, 2-((3-Chloro-4-(4-methylpiperazin-1-yl)phenyl)amino)-1H-benzo[d]imidazole-6-carbonitrile] | receptor occupancy at 1 µM [12]: 49%; IC50 [13]: 570 nM
 |  |  |  |  |  | Cc1ccc2nc(NC(=O)CSc3nc4c(c(=O)n3-c3ccc(F)cc3)SCC4)sc2c1 [IWP-3, reference compound] | IC50 [2, 14]: > 30000 nM; IC50 [6, 15]: > 30000 nM; IC50 [3, 16]: > 30000 nM
 |  |  |  |  |  | Nc1nccc(-c2c(-c3ccc(F)cc3)ncn2C2CCCCC2)n1 [PF-670462, reference compound] | IC50 [2, 14]: > 30000 nM; IC50 [6, 15]: > 30000 nM; IC50 [3, 16]: > 30000 nM
